Measurements: ChEMBL document CHEMBL4800731, “Data for DCP probe JNJ-65355394” (2021)

Assays:
Rattus norvegicus [1] = species: Rattus norvegicus; assay: rCaCH (D888) Cerep panel
[2] = target: Adenosine receptor A1 (Homo sapiens) (UniProt P30542); assay: hA1 Cerep panel
[3] = target: D(1A) dopamine receptor (Homo sapiens) (UniProt P21728); assay: hD1 Cerep panel
[4] = target: Mu-type opioid receptor (Homo sapiens) (UniProt P35372); assay: hOP3 Cerep panel
[5] = target: 5-hydroxytryptamine receptor 2A (Homo sapiens) (UniProt P28223); settings: Compound concentration 10.0 uM
[6] = target: 5-hydroxytryptamine receptor 2B (Homo sapiens) (UniProt P41595); settings: Compound concentration 10.0 uM
[7] = target: 5-hydroxytryptamine receptor 2C (Homo sapiens) (UniProt P28335); settings: Compound concentration 10.0 uM
[8] = target: T1, 5-hydroxytryptamine receptor 3A (Homo sapiens) (UniProt P46098); settings: Compound concentration 10.0 uM
T1 sequence (whole entry): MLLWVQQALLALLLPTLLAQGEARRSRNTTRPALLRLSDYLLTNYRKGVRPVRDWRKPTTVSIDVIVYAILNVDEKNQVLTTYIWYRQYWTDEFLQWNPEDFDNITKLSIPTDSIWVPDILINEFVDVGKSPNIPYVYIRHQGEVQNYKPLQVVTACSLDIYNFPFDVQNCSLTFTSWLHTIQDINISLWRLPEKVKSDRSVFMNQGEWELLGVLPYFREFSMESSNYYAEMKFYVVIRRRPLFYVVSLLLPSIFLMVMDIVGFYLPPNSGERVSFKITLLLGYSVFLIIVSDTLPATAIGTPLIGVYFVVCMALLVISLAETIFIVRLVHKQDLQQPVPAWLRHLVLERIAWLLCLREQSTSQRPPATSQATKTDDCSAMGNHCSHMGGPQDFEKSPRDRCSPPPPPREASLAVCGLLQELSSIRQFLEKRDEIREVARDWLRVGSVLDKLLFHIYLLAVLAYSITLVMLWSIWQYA

[9] = target: 5-hydroxytryptamine receptor 5A (Homo sapiens) (UniProt P47898); settings: Compound concentration 10.0 uM
[10] = target: 5-hydroxytryptamine receptor 7 (Homo sapiens) (UniProt P34969); settings: Compound concentration 10.0 uM
[11] = target: Mu-type opioid receptor (Homo sapiens) (UniProt P35372); settings: Compound concentration 10.0 uM
[12] = target: Kappa-type opioid receptor (Homo sapiens, UniProt P41145); settings: Compound concentration 10.0 uM
[13] = target: T2, GABA-A receptor; anion channel (Rattus norvegicus) (UniProt O09028+P15431+P18506+P18508+P19969+P20236+P23574+P23576+P28471+P28473+P30191+P62813+P63079+P63138+Q91ZM7+Q9ES14); settings: Compound concentration 10.0 uM
[14] = target: Histamine H1 receptor (Homo sapiens) (UniProt P35367); settings: Compound concentration 10.0 uM
[15] = target: Histamine H2 receptor (Homo sapiens) (UniProt P25021); settings: Compound concentration 10.0 uM
[16] = target: Histamine H3 receptor (Homo sapiens) (UniProt Q9Y5N1); settings: Compound concentration 10.0 uM
[17] = target: Alpha-2B adrenergic receptor (Homo sapiens) (UniProt P18089); settings: Compound concentration 10.0 uM
[18] = target: Alpha-2C adrenergic receptor (Homo sapiens) (UniProt P18825); settings: Compound concentration 10.0 uM
[19] = target: Beta-2 adrenergic receptor (Homo sapiens) (UniProt P07550); settings: Compound concentration 10.0 uM
[20] = target: T3, Muscarinic acetylcholine receptor M1 (Homo sapiens) (UniProt P11229); settings: Compound concentration 10.0 uM
T3 sequence (whole entry): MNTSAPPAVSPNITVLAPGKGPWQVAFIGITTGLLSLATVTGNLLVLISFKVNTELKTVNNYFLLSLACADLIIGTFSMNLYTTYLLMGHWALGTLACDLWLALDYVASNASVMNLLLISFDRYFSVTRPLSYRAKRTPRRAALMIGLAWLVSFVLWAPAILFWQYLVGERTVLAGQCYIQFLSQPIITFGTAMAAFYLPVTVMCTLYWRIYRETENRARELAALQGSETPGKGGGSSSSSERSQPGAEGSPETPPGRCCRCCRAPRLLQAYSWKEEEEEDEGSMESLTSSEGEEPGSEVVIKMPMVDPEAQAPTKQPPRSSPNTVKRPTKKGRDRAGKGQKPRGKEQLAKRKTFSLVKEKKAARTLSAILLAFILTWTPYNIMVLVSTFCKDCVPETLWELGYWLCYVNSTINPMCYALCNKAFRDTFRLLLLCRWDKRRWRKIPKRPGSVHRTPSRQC

[21] = target: T4, Muscarinic acetylcholine receptor M2 (Homo sapiens) (UniProt P08172); settings: Compound concentration 10.0 uM
T4 sequence (whole entry): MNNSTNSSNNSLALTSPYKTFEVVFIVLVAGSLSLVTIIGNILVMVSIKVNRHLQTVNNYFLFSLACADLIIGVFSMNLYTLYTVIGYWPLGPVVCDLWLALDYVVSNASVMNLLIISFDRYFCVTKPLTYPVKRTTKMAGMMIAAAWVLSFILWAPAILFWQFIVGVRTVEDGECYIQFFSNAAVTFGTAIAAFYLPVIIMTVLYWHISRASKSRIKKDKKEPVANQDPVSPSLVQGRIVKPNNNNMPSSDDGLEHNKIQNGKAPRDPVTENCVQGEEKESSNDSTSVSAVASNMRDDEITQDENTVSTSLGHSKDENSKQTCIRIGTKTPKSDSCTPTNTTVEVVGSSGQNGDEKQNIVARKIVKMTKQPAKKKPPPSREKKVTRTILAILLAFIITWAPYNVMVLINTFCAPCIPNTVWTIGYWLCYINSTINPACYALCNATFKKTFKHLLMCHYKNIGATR

[22] = target: T2, GABA-A receptor; anion channel (Rattus norvegicus); settings: Compound concentration 10.0 uM; remark: listed apart in the source
Rattus norvegicus [23] = species: Rattus norvegicus; settings: Compound concentration 10.0 uM
[24] = target: Sigma intracellular receptor 2 (Homo sapiens, UniProt Q5BJF2); settings: Compound concentration 10.0 uM
[25] = target: Histamine H4 receptor (Homo sapiens) (UniProt Q9H3N8); settings: Compound concentration 10.0 uM
[26] = target: Muscarinic acetylcholine receptor M5 (Homo sapiens) (UniProt P08912); settings: Compound concentration 10.0 uM

Sequence of Mu-type opioid receptor (Homo sapiens) (P35372 whole entry): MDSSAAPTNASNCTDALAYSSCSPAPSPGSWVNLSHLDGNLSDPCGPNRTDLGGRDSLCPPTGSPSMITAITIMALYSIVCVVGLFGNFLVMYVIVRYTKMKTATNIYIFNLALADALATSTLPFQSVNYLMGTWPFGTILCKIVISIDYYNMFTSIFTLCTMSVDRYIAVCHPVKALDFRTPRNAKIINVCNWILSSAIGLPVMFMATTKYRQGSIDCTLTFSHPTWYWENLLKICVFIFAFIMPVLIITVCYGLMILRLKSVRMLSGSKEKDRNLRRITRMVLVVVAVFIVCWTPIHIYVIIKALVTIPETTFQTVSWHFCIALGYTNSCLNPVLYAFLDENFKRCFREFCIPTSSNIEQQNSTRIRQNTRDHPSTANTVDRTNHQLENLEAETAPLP
Sequence of 5-hydroxytryptamine receptor 7 (Homo sapiens) (P34969 whole entry): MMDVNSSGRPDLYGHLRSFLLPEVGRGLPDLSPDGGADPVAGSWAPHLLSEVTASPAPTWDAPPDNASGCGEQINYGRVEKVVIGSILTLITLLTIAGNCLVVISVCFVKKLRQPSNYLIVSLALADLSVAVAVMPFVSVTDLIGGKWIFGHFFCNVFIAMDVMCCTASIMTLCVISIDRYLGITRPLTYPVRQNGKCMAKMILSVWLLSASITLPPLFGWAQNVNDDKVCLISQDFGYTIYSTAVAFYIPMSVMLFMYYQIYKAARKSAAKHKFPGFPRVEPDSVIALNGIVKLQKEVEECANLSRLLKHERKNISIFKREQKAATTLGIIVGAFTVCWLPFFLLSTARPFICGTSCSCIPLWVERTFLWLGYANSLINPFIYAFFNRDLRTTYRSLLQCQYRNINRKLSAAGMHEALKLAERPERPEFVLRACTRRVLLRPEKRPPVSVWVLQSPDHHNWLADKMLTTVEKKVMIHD
Sequence of 5-hydroxytryptamine receptor 2A (Homo sapiens) (P28223 whole entry): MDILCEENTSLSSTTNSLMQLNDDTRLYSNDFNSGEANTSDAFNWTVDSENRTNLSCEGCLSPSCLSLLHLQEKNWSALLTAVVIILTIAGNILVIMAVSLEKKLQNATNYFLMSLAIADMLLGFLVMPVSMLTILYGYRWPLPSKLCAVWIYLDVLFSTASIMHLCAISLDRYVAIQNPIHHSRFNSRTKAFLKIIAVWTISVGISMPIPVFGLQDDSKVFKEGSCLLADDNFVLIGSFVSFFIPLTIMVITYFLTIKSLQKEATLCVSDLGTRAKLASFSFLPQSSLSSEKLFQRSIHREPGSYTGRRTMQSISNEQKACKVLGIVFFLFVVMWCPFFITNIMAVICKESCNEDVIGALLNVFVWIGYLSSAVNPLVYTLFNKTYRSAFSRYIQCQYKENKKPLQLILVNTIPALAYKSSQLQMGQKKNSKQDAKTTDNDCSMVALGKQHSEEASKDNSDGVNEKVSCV
Sequence of Alpha-2C adrenergic receptor (Homo sapiens) (P18825 whole entry): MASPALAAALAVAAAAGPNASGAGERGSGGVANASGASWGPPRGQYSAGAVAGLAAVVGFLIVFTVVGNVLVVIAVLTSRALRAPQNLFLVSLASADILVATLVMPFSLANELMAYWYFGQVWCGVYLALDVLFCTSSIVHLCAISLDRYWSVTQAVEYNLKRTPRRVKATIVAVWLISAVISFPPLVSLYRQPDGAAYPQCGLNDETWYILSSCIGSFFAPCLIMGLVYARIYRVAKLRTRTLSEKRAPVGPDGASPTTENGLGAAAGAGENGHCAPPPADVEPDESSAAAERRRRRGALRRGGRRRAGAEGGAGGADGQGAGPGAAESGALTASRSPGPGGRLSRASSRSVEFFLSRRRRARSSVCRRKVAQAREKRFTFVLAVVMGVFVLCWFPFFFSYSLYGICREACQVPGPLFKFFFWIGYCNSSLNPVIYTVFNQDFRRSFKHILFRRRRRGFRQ
Sequence of Beta-2 adrenergic receptor (Homo sapiens) (P07550 whole entry, looked up): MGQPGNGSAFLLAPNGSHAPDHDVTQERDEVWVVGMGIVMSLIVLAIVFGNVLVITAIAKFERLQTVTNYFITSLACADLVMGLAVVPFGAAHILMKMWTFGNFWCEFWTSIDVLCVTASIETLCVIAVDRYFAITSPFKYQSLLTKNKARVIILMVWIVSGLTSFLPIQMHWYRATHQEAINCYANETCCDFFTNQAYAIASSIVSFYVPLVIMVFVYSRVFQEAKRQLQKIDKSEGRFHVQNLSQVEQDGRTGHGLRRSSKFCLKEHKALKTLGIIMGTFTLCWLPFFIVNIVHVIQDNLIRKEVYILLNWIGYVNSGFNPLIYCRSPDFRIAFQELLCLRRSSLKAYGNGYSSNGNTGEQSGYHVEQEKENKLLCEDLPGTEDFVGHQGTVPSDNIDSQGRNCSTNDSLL
Sequence of Histamine H3 receptor (Homo sapiens) (Q9Y5N1 whole entry): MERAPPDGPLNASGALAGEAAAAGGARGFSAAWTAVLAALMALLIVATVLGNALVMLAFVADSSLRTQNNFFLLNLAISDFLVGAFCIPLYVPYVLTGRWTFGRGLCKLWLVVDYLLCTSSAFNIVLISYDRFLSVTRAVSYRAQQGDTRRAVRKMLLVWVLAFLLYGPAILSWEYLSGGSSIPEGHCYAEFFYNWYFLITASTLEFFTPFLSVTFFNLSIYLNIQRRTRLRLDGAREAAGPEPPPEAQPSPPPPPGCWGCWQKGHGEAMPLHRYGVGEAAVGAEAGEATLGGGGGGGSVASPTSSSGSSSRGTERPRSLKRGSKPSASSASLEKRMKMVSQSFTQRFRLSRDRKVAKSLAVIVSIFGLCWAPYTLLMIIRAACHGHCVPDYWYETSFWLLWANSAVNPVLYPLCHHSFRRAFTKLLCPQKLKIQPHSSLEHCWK
Sequence of Sigma intracellular receptor 2 (Q5BJF2 whole entry): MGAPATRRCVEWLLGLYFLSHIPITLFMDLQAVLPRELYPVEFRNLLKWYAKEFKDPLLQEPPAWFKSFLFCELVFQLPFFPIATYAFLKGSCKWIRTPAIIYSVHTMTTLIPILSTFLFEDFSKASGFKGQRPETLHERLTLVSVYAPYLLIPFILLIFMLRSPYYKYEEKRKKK
Sequence of 5-hydroxytryptamine receptor 2B (Homo sapiens) (P41595 whole entry): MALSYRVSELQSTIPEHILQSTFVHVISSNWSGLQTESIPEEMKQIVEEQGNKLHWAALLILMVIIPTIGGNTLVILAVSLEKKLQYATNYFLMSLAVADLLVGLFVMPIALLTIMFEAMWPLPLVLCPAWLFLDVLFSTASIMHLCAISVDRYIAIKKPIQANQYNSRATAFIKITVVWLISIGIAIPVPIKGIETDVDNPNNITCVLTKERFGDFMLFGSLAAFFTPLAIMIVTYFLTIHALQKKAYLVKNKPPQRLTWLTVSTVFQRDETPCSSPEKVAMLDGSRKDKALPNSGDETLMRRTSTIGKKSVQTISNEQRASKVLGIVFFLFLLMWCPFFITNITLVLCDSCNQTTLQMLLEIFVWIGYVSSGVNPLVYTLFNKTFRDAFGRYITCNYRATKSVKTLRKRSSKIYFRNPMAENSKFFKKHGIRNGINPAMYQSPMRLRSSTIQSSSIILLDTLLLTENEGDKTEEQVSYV
Sequence of 5-hydroxytryptamine receptor 5A (Homo sapiens) (P47898 whole entry): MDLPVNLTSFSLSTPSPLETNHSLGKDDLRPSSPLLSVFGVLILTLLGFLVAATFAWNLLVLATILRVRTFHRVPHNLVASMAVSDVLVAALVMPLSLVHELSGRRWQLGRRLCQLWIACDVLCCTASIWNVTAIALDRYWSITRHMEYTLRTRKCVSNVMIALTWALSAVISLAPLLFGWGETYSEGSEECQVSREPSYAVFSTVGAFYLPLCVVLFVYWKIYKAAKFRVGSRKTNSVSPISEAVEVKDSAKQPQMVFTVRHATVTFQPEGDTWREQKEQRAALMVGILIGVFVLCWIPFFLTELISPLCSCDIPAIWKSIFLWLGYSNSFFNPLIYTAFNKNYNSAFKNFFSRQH
Sequence of Alpha-2B adrenergic receptor (Homo sapiens) (P18089 whole entry): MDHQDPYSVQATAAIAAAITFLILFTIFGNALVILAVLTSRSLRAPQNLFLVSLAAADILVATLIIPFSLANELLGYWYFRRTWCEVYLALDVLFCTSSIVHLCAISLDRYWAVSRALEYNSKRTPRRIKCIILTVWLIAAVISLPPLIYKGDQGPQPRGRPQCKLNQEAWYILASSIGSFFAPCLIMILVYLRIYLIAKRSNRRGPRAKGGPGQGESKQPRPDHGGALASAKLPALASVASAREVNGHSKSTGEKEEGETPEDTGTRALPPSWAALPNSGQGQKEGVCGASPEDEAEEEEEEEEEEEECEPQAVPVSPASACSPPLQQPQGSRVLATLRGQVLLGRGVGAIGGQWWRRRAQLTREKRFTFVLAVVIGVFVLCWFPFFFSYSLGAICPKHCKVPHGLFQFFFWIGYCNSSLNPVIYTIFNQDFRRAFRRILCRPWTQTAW
Sequence of Kappa-type opioid receptor (P41145 whole entry): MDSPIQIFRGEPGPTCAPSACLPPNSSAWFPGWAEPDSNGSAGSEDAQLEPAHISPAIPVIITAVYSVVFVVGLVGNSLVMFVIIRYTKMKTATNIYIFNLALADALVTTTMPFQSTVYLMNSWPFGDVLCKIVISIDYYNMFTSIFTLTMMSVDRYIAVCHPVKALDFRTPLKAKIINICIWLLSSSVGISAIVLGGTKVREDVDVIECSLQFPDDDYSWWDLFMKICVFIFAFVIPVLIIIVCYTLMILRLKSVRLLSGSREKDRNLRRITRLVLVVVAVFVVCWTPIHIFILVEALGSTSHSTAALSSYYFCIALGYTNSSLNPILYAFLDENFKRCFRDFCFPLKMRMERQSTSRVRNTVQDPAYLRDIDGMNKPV
Sequence of Adenosine receptor A1 (Homo sapiens) (P30542 whole entry): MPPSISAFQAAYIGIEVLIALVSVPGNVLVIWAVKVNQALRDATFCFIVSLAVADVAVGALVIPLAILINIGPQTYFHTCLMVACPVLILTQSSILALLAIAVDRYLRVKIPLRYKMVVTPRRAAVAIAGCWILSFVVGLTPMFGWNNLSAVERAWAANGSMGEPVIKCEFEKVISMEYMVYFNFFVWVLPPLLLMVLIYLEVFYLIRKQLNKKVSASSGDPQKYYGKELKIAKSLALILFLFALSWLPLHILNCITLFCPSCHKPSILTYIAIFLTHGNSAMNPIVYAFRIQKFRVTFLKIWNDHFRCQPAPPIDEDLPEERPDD

Row | inhibition [5] [%] | inhibition [6] [%] | inhibition [7] [%] | inhibition [8] [%] | inhibition [9] [%] | inhibition [10] [%] | inhibition [11] [%] | inhibition [12] [%] | inhibition [13] [%] | inhibition [14] [%] | inhibition [16] [%] | inhibition [17] [%] | inhibition [18] [%] | inhibition [19] [%] | inhibition [20] [%] | inhibition [21] [%] | inhibition [22] [%] | inhibition (Rattus norvegicus [23]) [%] | inhibition [24] [%] | Structure (SMILES) | also measured
1 | -2.94 | 6.7 | 15.2 | 6.87 | 18.7 | 9.6 | 12.8 | 75.1 | -8.39 | 44 | 10.8 | 44.8 | 31.9 | -5.16 | 6.18 | 9.54 | 8.07 | 5.69 | 19 | CC(=O)Nc1ncc(CN2CCC[C@H](Cc3cc(C)nc(C)c3)C2)s1 [JNJ-65355394] | effect (Rattus norvegicus [1]): 4.9%; effect [2]: -13.2%; effect [3]: 20.1%; effect [4]: 55.4%; inhibition [15]: 3.45%
2 | 6.45 | 17.9 | 16.3 | 20.7 | 17.8 | 2.58 | 27.3 | 17.9 | 43.6 | 44.2 | 27.1 | 59.1 | 36.5 | -8.1 | 25.4 | 8.65 | 43.5 | 11.2 | 59.6 | CC(=O)Nc1nc(CN2CCC[C@H](Cc3cc(C)nc(C)c3)C2)cs1 [JNJ-73924149] | inhibition [25]: -0.6%; inhibition [26]: -6.15%
